Measurements from US20250230193A1, “CYCLIC COMPOUND HAVING SELECTIVE KRAS INHIBITORY EFFECT ON HRAS AND NRAS” (CHUGAI SEIYAKU KABUSHIKI KAISHA, priority 2022, published 2025).

Experiments:
[1] = target: GDP-bound NRAS wild-type protein (Homo sapiens, UniProt P01111); test: Binding to NRAS by surface plasmon resonance (SPR), Single Cycle Kinetics; details: KD ratio NRAS/KRAS, SPR
[2] = target: GDP-bound HRAS wild-type protein (Homo sapiens, UniProt P01112); test: Binding to HRAS by surface plasmon resonance (SPR), Single Cycle Kinetics; details: KD ratio HRAS/KRAS, SPR
GDP-bound HRAS wild-type protein, sequence (P01112 whole entry): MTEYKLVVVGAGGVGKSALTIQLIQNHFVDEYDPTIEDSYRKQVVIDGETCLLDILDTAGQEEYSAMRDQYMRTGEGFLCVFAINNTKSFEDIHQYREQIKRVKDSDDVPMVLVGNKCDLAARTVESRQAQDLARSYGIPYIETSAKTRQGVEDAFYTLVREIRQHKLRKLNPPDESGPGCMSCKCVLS

GDP-bound NRAS wild-type protein, sequence (P01111 whole entry): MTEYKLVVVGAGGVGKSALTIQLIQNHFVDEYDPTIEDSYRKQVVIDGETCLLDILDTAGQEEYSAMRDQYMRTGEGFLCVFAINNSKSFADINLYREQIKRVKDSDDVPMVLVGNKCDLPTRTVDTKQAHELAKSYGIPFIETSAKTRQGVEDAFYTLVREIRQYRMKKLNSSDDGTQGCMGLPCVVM

Row | SMILES | NRAS/KRAS (ratio of KD value with respect to GDP-bound NRAS wild-type protein to KD value with respect to KRAS) [1] | HRAS/KRAS (ratio of KD value with respect to GDP-bound HRAS wild-type protein to KD value with respect to KRAS) [2]
1 | CCO[C@@H]1C[C@H]2C(=O)NC3(CCC3)C(=O)N(C)[C@@H](C3CCCC3)C(=O)N(C)[C@H](C(=O)N3CCOCC3)CC(=O)N(C)[C@@H](CC3CCC3)C(=O)N[C@@H]([C@@H](C)CC)C(=O)N(C)CC(=O)N(C)[C@H]3CCCCN(C3=O)[C@@H](Cc3ccc(C(F)(F)F)cc3)C(=O)N(C)CC(=O)N[C@@H](CCc3cc(F)c(C(F)(F)F)c(F)c3)C(=O)N2C1 [PP0713] | C (A compound having a KD ratio of 0.1 or more and less than 3 is denoted as C) | B (a compound having 3 or more and less than 10 is denoted as B)
2 | CCO[C@@H]1C[C@H]2C(=O)NC3(CCC3)C(=O)N(C)[C@@H](C3CCCC3)C(=O)N(C)[C@H](C(=O)N3CCOCC3)CC(=O)N(C)[C@@H](CC(C)(C)C)C(=O)N[C@@H]([C@@H](C)CC)C(=O)N(C)CC(=O)N(C)[C@H]3CCCCN(C3=O)[C@@H](Cc3ccc(C(F)(F)F)cc3)C(=O)N(C)CC(=O)N[C@@H](CCc3cc(F)c(C(F)(F)F)c(F)c3)C(=O)N2C1 [PP0714] | C (A compound having a KD ratio of 0.1 or more and less than 3 is denoted as C) | B (a compound having 3 or more and less than 10 is denoted as B)
3 | CCO[C@@H]1C[C@H]2C(=O)NC3(CCC3)C(=O)N(C)[C@@H](C3CCCC3)C(=O)N(C)[C@H](C(=O)N3CCOCC3)CC(=O)N(C)[C@@H](CC3CCCC3)C(=O)N[C@@H]([C@@H](C)CC)C(=O)N(C)CC(=O)N(C)[C@H]3CCCCN(C3=O)[C@@H](Cc3ccc(C(F)(F)F)cc3)C(=O)N(C)CC(=O)N[C@@H](CCc3cc(F)c(C(F)(F)F)c(F)c3)C(=O)N2C1 [PP0715] | C (A compound having a KD ratio of 0.1 or more and less than 3 is denoted as C) | B (a compound having 3 or more and less than 10 is denoted as B)
4 | CCO[C@@H]1C[C@H]2C(=O)NC3(CCC3)C(=O)N(C)[C@@H](C3CCCC3)C(=O)N(C)[C@H](C(=O)N3CCOCC3)CC(=O)N(C)[C@@H](CC3CCCCC3)C(=O)N[C@@H]([C@@H](C)CC)C(=O)N(C)CC(=O)N(C)[C@H]3CCCCN(C3=O)[C@@H](Cc3ccc(C(F)(F)F)cc3)C(=O)N(C)CC(=O)N[C@@H](CCc3cc(F)c(C(F)(F)F)c(F)c3)C(=O)N2C1 [PP0716] | C (A compound having a KD ratio of 0.1 or more and less than 3 is denoted as C) | B (a compound having 3 or more and less than 10 is denoted as B)
5 | CCO[C@@H]1C[C@H]2C(=O)NC3(CCC3)C(=O)N(C)[C@@H](C3CCCC3)C(=O)N(C)[C@H](C(=O)N3CCOCC3)CC(=O)N(C)[C@@H](Cc3cccnc3)C(=O)N[C@@H]([C@@H](C)CC)C(=O)N(C)CC(=O)N(C)[C@H]3CCCCN(C3=O)[C@@H](Cc3ccc(C(F)(F)F)cc3)C(=O)N(C)CC(=O)N[C@@H](CCc3cc(F)c(C(F)(F)F)c(F)c3)C(=O)N2C1 [PP0718] | C (A compound having a KD ratio of 0.1 or more and less than 3 is denoted as C) | B (a compound having 3 or more and less than 10 is denoted as B)
6 | CCO[C@@H]1C[C@H]2C(=O)NC3(CCC3)C(=O)N(C)[C@@H](C3CCCC3)C(=O)N(C)[C@H](C(=O)N3CCOCC3)CC(=O)N(C)[C@@H](COC)C(=O)N[C@@H]([C@@H](C)CC)C(=O)N(C)CC(=O)N(C)[C@H]3CCCCN(C3=O)[C@@H](Cc3ccc(C(F)(F)F)cc3)C(=O)N(C)CC(=O)N[C@@H](CCc3cc(F)c(C(F)(F)F)c(F)c3)C(=O)N2C1 [PP0719] | C (A compound having a KD ratio of 0.1 or more and less than 3 is denoted as C) | B (a compound having 3 or more and less than 10 is denoted as B)
7 | CCO[C@@H]1C[C@H]2C(=O)NC3(CCC3)C(=O)N(C)[C@@H](C3CCCC3)C(=O)N(C)[C@H](C(=O)N3CCOCC3)CC(=O)N(C)[C@@H](CCOC)C(=O)N[C@@H]([C@@H](C)CC)C(=O)N(C)CC(=O)N(C)[C@H]3CCCCN(C3=O)[C@@H](Cc3ccc(C(F)(F)F)cc3)C(=O)N(C)CC(=O)N[C@@H](CCc3cc(F)c(C(F)(F)F)c(F)c3)C(=O)N2C1 [PP0720] | C (A compound having a KD ratio of 0.1 or more and less than 3 is denoted as C) | B (a compound having 3 or more and less than 10 is denoted as B)
8 | CCO[C@@H]1C[C@H]2C(=O)NC3(CCC3)C(=O)N(C)[C@@H](C3CCCC3)C(=O)N(C)[C@H](C(=O)N3CCOCC3)CC(=O)N(C)C[C@@H](C)C(=O)N[C@@H]([C@@H](C)CC)C(=O)N(C)CC(=O)N(C)[C@H]3CCCCN(C3=O)[C@@H](Cc3ccc(C(F)(F)F)cc3)C(=O)N(C)CC(=O)N[C@@H](CCc3cc(F)c(C(F)(F)F)c(F)c3)C(=O)N2C1 [PP0721] | B (a compound having 3 or more and less than 10 is denoted as B) | B (a compound having 3 or more and less than 10 is denoted as B)
9 | CCO[C@@H]1C[C@H]2C(=O)NC3(CCC3)C(=O)N(C)[C@@H](C3CCCC3)C(=O)N(C)[C@H](C(=O)N3CCOCC3)CC(=O)N(C)C(C)(C)C(=O)N[C@@H]([C@@H](C)CC)C(=O)N(C)CC(=O)N(C)[C@H]3CCCCN(C3=O)[C@@H](Cc3ccc(C(F)(F)F)cc3)C(=O)N(C)CC(=O)N[C@@H](CCc3cc(F)c(C(F)(F)F)c(F)c3)C(=O)N2C1 [PP0722] | C (A compound having a KD ratio of 0.1 or more and less than 3 is denoted as C) | B (a compound having 3 or more and less than 10 is denoted as B)
10 | CCO[C@@H]1C[C@H]2C(=O)NC3(CC(C)(C)C3)C(=O)N(C)[C@@H](C3CCCC3)C(=O)N(C)[C@H](C(=O)N(C)C)CC(=O)N(C)[C@@H](C)C(=O)N[C@@H]([C@@H](C)CC)C(=O)N(C)CC(=O)N(C)[C@H]3CCCCCN(C3=O)[C@@H](Cc3ccc(C(F)(F)F)cc3)C(=O)N(C)CC(=O)N[C@@H](CCc3cc(F)c(C(F)(F)F)c(F)c3)C(=O)N2C1 [PP0723] | B (a compound having 3 or more and less than 10 is denoted as B) | B (a compound having 3 or more and less than 10 is denoted as B)
11 | CCO[C@@H]1C[C@H]2C(=O)NC3(CC=CC3)C(=O)N(C)[C@@H](C3CCCC3)C(=O)N(C)[C@H](C(=O)N(C)C)CC(=O)N(C)[C@@H](C)C(=O)N[C@@H]([C@@H](C)CC)C(=O)N(C)CC(=O)N(C)[C@H]3CCCCCN(C3=O)[C@@H](Cc3ccc(C(F)(F)F)cc3)C(=O)N(C)CC(=O)N[C@@H](CCc3cc(F)c(C(F)(F)F)c(F)c3)C(=O)N2C1 [PP0724] | B (a compound having 3 or more and less than 10 is denoted as B) | B (a compound having 3 or more and less than 10 is denoted as B)
12 | CCO[C@@H]1C[C@H]2C(=O)NC3(CCC(F)(F)CC3)C(=O)N(C)[C@@H](C3CCCC3)C(=O)N(C)[C@H](C(=O)N(C)C)CC(=O)N(C)[C@@H](C)C(=O)N[C@@H]([C@@H](C)CC)C(=O)N(C)CC(=O)N(C)[C@H]3CCCCCN(C3=O)[C@@H](Cc3ccc(C(F)(F)F)cc3)C(=O)N(C)CC(=O)N[C@@H](CCc3cc(F)c(C(F)(F)F)c(F)c3)C(=O)N2C1 [PP0725] | B (a compound having 3 or more and less than 10 is denoted as B) | B (a compound having 3 or more and less than 10 is denoted as B)
13 | CCO[C@@H]1C[C@H]2C(=O)NC3(CC(C)(C)C3)C(=O)N(C)[C@@H](C3CCCC3)C(=O)N(C)[C@H](C(=O)N3CCOCC3)CC(=O)N(C)[C@@H](CC(C)C)C(=O)N[C@@H]([C@@H](C)CC)C(=O)N(C)CC(=O)N(C)[C@H]3CCCCCN(C3=O)[C@@H](Cc3ccc(C(F)(F)F)cc3)C(=O)N(C)CC(=O)N[C@@H](CCc3cc(F)c(C(F)(F)F)c(F)c3)C(=O)N2C1 [PP0726] | B (a compound having 3 or more and less than 10 is denoted as B) | B (a compound having 3 or more and less than 10 is denoted as B)
14 | CCO[C@@H]1C[C@H]2C(=O)NC3(CC=CC3)C(=O)N(C)[C@@H](C3CCCC3)C(=O)N(C)[C@H](C(=O)N3CCOCC3)CC(=O)N(C)[C@@H](CC(C)C)C(=O)N[C@@H]([C@@H](C)CC)C(=O)N(C)CC(=O)N(C)[C@H]3CCCCCN(C3=O)[C@@H](Cc3ccc(C(F)(F)F)cc3)C(=O)N(C)CC(=O)N[C@@H](CCc3cc(F)c(C(F)(F)F)c(F)c3)C(=O)N2C1 [PP0727] | B (a compound having 3 or more and less than 10 is denoted as B) | B (a compound having 3 or more and less than 10 is denoted as B)
15 | CCO[C@@H]1C[C@H]2C(=O)NC3(CCC(F)(F)CC3)C(=O)N(C)[C@@H](C3CCCC3)C(=O)N(C)[C@H](C(=O)N3CCOCC3)CC(=O)N(C)[C@@H](CC(C)C)C(=O)N[C@@H]([C@@H](C)CC)C(=O)N(C)CC(=O)N(C)[C@H]3CCCCCN(C3=O)[C@@H](Cc3ccc(C(F)(F)F)cc3)C(=O)N(C)CC(=O)N[C@@H](CCc3cc(F)c(C(F)(F)F)c(F)c3)C(=O)N2C1 [PP0728] | B (a compound having 3 or more and less than 10 is denoted as B) | B (a compound having 3 or more and less than 10 is denoted as B)
